Test results from patent US7846963B2, “2-oxo-heterocyclic compounds and the pharmaceutical compositions comprising the same” (Korea Research Institute of Bioscience and Biotechnology, priority 2003, dated 2010).

Test system: production of TNF-alpha in RAW 264.7 cells
Assay: Inhibition of TNF-alpha production in LPS-treated RAW 264.7 cells, ELISA of culture supernatant
Type: cell-based, mouse
Details: Mus musculus, RAW264.7, Table 23, LPS 0.3 μg/ml, 24 hours, compounds up to 10 μM, IC50 unit inferred
Description: To test the inhibiting activity of the compounds prepared from above Examples on the production of TNF-alpha, the concentration of TNF-alpha in the cell supernatant was measured.
Each 200 μl of RAW 264.7 cells (ATCC, USA), a mouse macrophage cell line was seeded onto each well of 96-well microtiter plate (Nunc, Sweden) to the concentration ranging from 1×10^6 cells/ml to 5×10^6 cells/ml, and incubated in DMEM (Dulbeco's modified eagles medium) media containing 5% FBS (fetal bovine serum) at 37° C. in 5% CO2 incubator.
Various concentrations of the compounds of the present invention ranging from […] to 10 μM and LPS (Sigma, USA) in the final concentration of 0.3 μg/ml were treated to activated cell simultaneously. The treated cells were cultured at 37° C. for 24 hours in 5% CO2 incubator and the cultured cells were collected after the cultivation
And then the concentration of TNF-alpha secreted from the culture supernatant of RAW 264.7 cells was determined by ELISA according to the manufacture's instruction (R&D Systems, Minneapolis, Minn.).
The result was shown in Table 23 (AA: IC50's<1, A: IC50's<5, B: IC50's<10, C: IC50's>10).

IC50 [µM] | SMILES
< 5 | O=C(CCC1=CCN(CCc2cccc3ccccc23)C1=O)NO [Example 52, N-hydroxy-3-[1-(2-naphthalene-1-yl-ethyl)-2-oxo-2,5-dihydro-1H-pyrrol-3-yl]-propionamide]
< 5 | O=C(CCC1=CCN(CCc2cccs2)C1=O)NO [Example 54, N-hydroxy-3-[2-oxo-1-(2-thiophen-2-yl-ethyl)-2,5-dihydro-1H-pyrrol-3-yl]-propionamide]
< 5 | O=C(CCC1=CCN(CCCc2ccc(-c3ccccc3)cc2)C1=O)NO [Example 55, 3-[1-(3-biphenyl-4-yl-propyl)-2-oxo-2,5-dihydro-1H-pyrrol-3-yl]-N-hydroxy-propionamide]
< 10 | COc1ccc(CN2CCC=C(CCC(=O)NO)C2=O)c(OC)c1 [Example 57, 3-[1-(2,4-Dimethoxybenzyl)-2-oxo-1,2,5,6-tetrahydropyridin-3-yl]N-hydroxypropionamide]
< 5 | O=C(CCC1=CCCN(CCc2ccccc2)C1=O)NO [Example 60]
> 10 | COc1ccc(CN2CCC=C(CCC(=O)O)C2=O)c(OC)c1 [Example 63, 3-[1-(2,4-dimethoxybenzyl)-2-oxo-1,2,5,6-tetrahydro-pyridin-3-yl]-propionic acid]
> 10 | O=C(O)CCC1=CCCN(Cc2ccccc2)C1=O [Example 64, 3-(1-benzyl-2-oxo-1,2,5,6-tetrahydro-pyridin-3-yl)-propionic acid]
> 10 | O=C(O)CCC1=CCCN(Cc2ccc([N+](=O)[O-])cc2)C1=O [Example 65, 3-[1-(4-nitro-benzyl)-2-oxo-1,2,5,6-tetrahydro-pyridin-3-yl)-propionic acid]
> 10 | CC(=O)Nc1ccc(CN2CCC=C(CCC(=O)NO)C2=O)cc1 [Example 74, 3-[1-(4-acetylamino-benzyl)-2-oxo-1,2,5,6-tetrahydro-pyridin-3-yl]-N-hydroxy-propionamide]
< 5 | O=C(O)CCC1=CCCN(Cc2ccc(NC(=O)c3ccccc3)cc2)C1=O [Example 79, 3-[1-(4-benzoylamino-benzyl)-2-oxo-1,2,5,6-tetrahydro-pyridin-3-yl]-propionic acid]
< 5 | O=C(CC1=CCCN(Cc2ccc([N+](=O)[O-])cc2)C1=O)NO [Example 84, N-hydroxy-2-[1-(4-nitro-benzyl)-2-oxo-1,2,5,6-tetrahydro-pyridin-3-yl)-N-hydroxy-acetamide]
< 10 | O=C(CC1=CCCN(CCCc2ccccc2)C1=O)NO [Example 85, N-hydroxy-2-[2-oxo-1-(3-phenyl-propyl)-1,2,5,6-tetrahydro-pyridin-3-yl]-N-hydroxy-acetamide]
< 5 | O=C(CC1=CCCN(CCCCc2ccccc2)C1=O)NO [Example 86, N-hydroxy-2-[2-oxo-1-(4-phenyl-butyl)-1,2,5,6-tetrahydro-pyridin-3-yl]-N-hydroxy-acetamide]
< 1 | O=C(O)CC1=CCCN(Cc2ccccc2)C1=O [Example 88, (1-benzyl-2-oxo-1,2,5,6-tetrahydro-pyridin-3-yl)-acetic acid]
< 5 | COc1ccc(CN2CCCC(CC(=O)NO)C2=O)c(OC)c1 (stereo not drawn) [Example 92, 2-[1-(2,4-dimethoxy-benzyl)-2-oxopiperidine-3-yl]-N-hydroxy-acetamide]
< 5 | O=C(CC1CCCN(CCc2ccccc2)C1=O)NO (stereo not drawn) [Example 93, (2-oxo-1-phenethyl-piperidine-3-yl)-N-hydroxy-acetamide]
< 5 | COc1ccc(CN2CCC=C(CCCC(=O)NO)C2=O)cc1 [Example 95, 4-[1-(4-methoxy-benzyl)-2-oxo-1,2,5,6-tetrahydro-pyridin-3-yl]-N-hydroxy-butylamide]
< 5 | O=C(CCCC1=CCCN(CCc2ccccc2)C1=O)NO [Example 96, 4-(1-phenethyl-2-oxo-1,2,5,6-tetrahydro-pyridin-3-yl)-N-hydroxy-butylamide]
< 5 | O=C(CCCC1=CCCN(CCCc2ccccc2)C1=O)NO [Example 97, N-hydroxy-4-[2-oxo-1-(3-phenyl-propyl)-1,2,5,6-tetrahydro-pyridin-3-yl]-butylamide]
< 5 | O=C(CCC1=CCCNC1=O)NOCc1ccccc1 [Example 100, N-Benzyloxy-3-(2-oxo-1,2,5,6-tetrahydro-pyridin-3-yl)-propionamide]
> 10 | O=C(CCC1=CCCN(CCc2cccs2)C1=O)NO [Example 104, N-hydroxy-3-[2-oxo-1-(2-thiophen-2-yl-ethyl)-1,2,5,6-tetrahydro-pyridin-3-yl]-propionamide]

The remaining lines, values behind:

SMILES | IC50 [µM]
O=C(CCC1=CCN(CCc2ccc3ccccc3c2)C1=O)NO [Example 53, N-hydroxy-3-[1-(2-naphthalene-2-yl-ethyl)-2-oxo-2,5-dihydro-1H-pyrrol-3-yl]-propionamide] | < 1
O=C(CCC1=CCCN(Cc2ccccc2)C1=O)NO [Example 58, N-hydroxy-3-(1-benzyl-2-oxo-1,2,5,6-tetrahydro-pyridin-3-yl)-propionic acid] | < 5
O=C(CCC1=CCCN(Cc2ccc([N+](=O)[O-])cc2)C1=O)NO [Example 59, N-hydroxy-3-[1-(4-nitro-benzyl)-2-oxo-1,2,5,6-tetrahydro-pyridin-3-yl)-propionamide] | < 5
O=C(CCC1=CCCN(Cc2ccc(NC(=O)c3ccccc3)cc2)C1=O)NO [Example 75, N-4-[5-(2-hydroxycarbamoyl-ethyl)-6-oxo-3,6-dihydro-2-pyridin-1-yl-methyl]-phenyl-benzamide] | > 10
CS(=O)(=O)N(c1ccc(CN2CCC=C(CCC(=O)NO)C2=O)cc1)S(C)(=O)=O [Example 76, N-hydroxy-3-[1-(4-dimethylsulfonylamino-benzyl)-2-oxo-1,2,5,6-tetrahydro-pyridin-3-yl]-propionamide] | > 10
CC(=O)Nc1ccc(CN2CCC=C(CCC(=O)O)C2=O)cc1 [Example 78, 3-[1-(4-acetylamino-benzyl)-2-oxo-1,2,5,6-tetrahydro-pyridin-3-yl]-propionic acid] | < 5
Cc1ccc(S(=O)(=O)Nc2ccc(CN3CCC=C(CCC(=O)O)C3=O)cc2)cc1 [Example 80] | < 1
O=C(CCC1CCCN(CCc2ccccc2)C1=O)NO (stereo not drawn) [Example 81, N-hydroxy-3-(2-oxo-1-phenethyl-piperidine-3-yl)-propionamide] | < 5
COc1ccc(CN2CCC=C(CC(=O)NO)C2=O)c(OC)c1 [Example 82, 2-[1-(2,4-dimethoxy-benzyl)-2-oxo-1,2,5,6-tetrahydro-pyridin-3-yl]-N-hydroxy-acetamide] | < 5
O=C(CC1=CCCN(Cc2ccccc2)C1=O)NO [Example 83, 2-(1-benzyl-2-oxo-1,2,5,6-tetrahydro-pyridin-3-yl)-N-hydroxy-acetamide] | < 5
COc1ccc(CN2CCC=C(CC(=O)O)C2=O)c(OC)c1 [Example 87, [1-(2,4-dimethoxy-benzyl)-2-oxo-1,2,5,6-tetrahydro-pyridin-3-yl]-acetic acid] | < 1
O=C(O)CC1=CCCN(CCc2ccccc2)C1=O [Example 89, (2-oxo-1-phenethyl-1,2,5,6-tetrahydro-pyridin-3-yl)-acetic acid] | < 5
O=C(O)CC1=CCCN(CCCCc2ccccc2)C1=O [Example 91, [2-oxo-1-(4-phenyl-butyl)-1,2,5,6-tetrahydro-pyridin-3-yl)-acetic acid] | < 10
O=C(CCCC1=CCCN(CCCCc2ccccc2)C1=O)NO [Example 98] | < 5
O=C(O)CCC1=CCCNC1=O [Example 99, 3-(2-oxo-1,2,5,6-tetrahydro-pyridin-3-yl)-propionic acid] | < 10
C=CCN1CCC=C(CCC(=O)NO)C1=O [Example 101, 3-(1-Allyl-2-oxo-1,2,5,6-tetrahydro-pyridin-3-yl)-N-hydroxy-propionamide] | < 1
CN1CCC=C(CCC(=O)NO)C1=O [Example 102, N-hydroxy-3-(1-methyl-2-oxo-1,2,5,6-tetrahydro-pyridin-3-yl)-propionamide] | < 1
O=C(CCC1=CCCN(Cc2ccc3ccccc3c2)C1=O)NO [Example 103, N-hydroxy-3-(1-(naphthalene-2-yl-methyl)-2-oxo-1,2,5,6-tetrahydro-pyridin-3-yl)-propionamide] | < 5
